Assay results taken from patent US8580831B2, “Fluorinated aminotriazole derivatives” (Actelion Pharmaceuticals Ltd., priority 2009, dated 2013).

Key:
human ALX receptor = biological target: T1, human ALX receptor (Homo sapiens, UniProt P25090); assay: Intracellular calcium measurements (FLIPR), ALX receptor agonistic activity; type: cell-based; conditions: HEK293-hALXR-Ga16 cells, calcium flux, normalized to WKYMVm 10 nM; read-out: EC50 (agonistic activity with respect to the ALX receptor)
T1 construct: expressed in transfected cells; host or cells: HEK293 (HEK293-hALXR-Ga16)
T1 sequence (P25090 1-351): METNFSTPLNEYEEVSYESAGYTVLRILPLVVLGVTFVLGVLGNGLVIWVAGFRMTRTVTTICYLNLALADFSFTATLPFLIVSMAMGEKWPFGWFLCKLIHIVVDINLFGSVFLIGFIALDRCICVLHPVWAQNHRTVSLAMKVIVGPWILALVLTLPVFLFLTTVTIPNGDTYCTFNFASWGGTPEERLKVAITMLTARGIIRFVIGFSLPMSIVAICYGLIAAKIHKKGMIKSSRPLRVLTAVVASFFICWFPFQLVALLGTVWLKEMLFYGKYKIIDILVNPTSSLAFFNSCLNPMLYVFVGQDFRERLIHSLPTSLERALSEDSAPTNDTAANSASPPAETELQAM
Experimental: The ALX receptor agonistic activity of the compounds of formula (I) is determined in accordance with the following experimental method.
Intracellular Calcium Measurements:
Cells expressing recombinant human ALX receptor and the G-protein Ga16 (HEK293-hALXR-Ga16) were grown to 80% confluency in Growing Medium (GM). Cells were detached from culture dishes with a cell dissociation buffer (Invitrogen, 13151-014), and collected by centrifugation at 1′000 rpm at rt for 5 min in Assay Buffer (AB) (equal parts of Hank's BSS (Gibco, 14065-049) and DMEM without Phenol Red (Gibco, 11880-028)). After 60 min incubation at 37° C. under 5% CO2 in AB supplemented with 1 μM Fluo-4 (AM) (Invitrogen, F14202) and 20 mM HEPES (Gibco, 15630-056), the cells were washed and resuspended in AB. They were then seeded onto 384-well FLIPR assay plates (Greiner, 781091) at 50′000 cells in 70 μl per well and sedimented by centrifugation at 1′000 rpm for 1 min. Stock solutions of test compounds were made up at a concentration of 10 mM in DMSO, and serially diluted in AB to concentrations required for activation dose response curves. WKYMVm (Phoenix Peptides) was used as a reference agonist. A FLIPR Tetra instrument (Molecular Devices) was operated according to the manufacturer's standard instructions, adding 4 μl of test compound dissolved at 10 mM in DMSO and diluted prior to the experiment in assay buffer to obtain the desired final concentration. Changes in fluorescence were monitored before and after the addition of test compounds at lex=488 nm and lem=540 nm. Emission peak values above base level after compounds addition were exported after base line subtraction. Values were normalized to high-level control (WKYMVm compound, 10 nM final concentration) after subtraction of the base line value (AB addition).

[1] = system: proteins of human liver microsomes (HLM); assay: Covalent binding between reactive metabolites and proteins using human liver microsomes; type: in vitro ADME
Experimental: Assay for Covalent Binding Between Reactive Metabolites and Proteins Using Human Liver Microsomes
The objective of the described covalent binding assay is to determine the amount of covalent binding between reactive metabolites and proteins of human liver microsomes (HLM) per hour following incubation in the presence of an NADPH regenerating system. The measured covalent binding rate is expressed in pmol bound drug equivalent/mg protein/h. It is a well-known advantage if compounds have a low tendency to bind covalently to proteins.
The radiolabelled compounds (^3H or ^14C) were incubated at a concentration of 10 μM in a single 96 well plate with 1.0 mg/mL of human liver microsomes in 0.1 M phosphate buffer (pH 7.4). To this end, a volume of 2.5 μL 1 mM stock solution prepared in the respective solvent (ethanol) was added to a final volume of 250 μL. Incubations were performed in the absence or presence of the NADPH-regenerating system with glucose-6-phosphate dehydrogenase (20 IU/ml dehydrogenase, 25 μl with 11 mM NADP sodium salt, 100 mM glucose-6-phosphate disodium salt, 100 mM MgCl2 in 0.1 M Tris buffer, pH 7.4) and additionally in the absence or presence of 5 mM GSH to trap reactive intermediates. An initial blank value without NADPH without incubation was also determined to determine unspecific rapid binding. Reactions were initiated by addition of 25 μL of an NADPH-regenerating system and terminated after one hour by adding 200 μL of the incubation mixture on a multiscreen deep well solvinert 96 hydrophobic PTFE filter plate (Millipore, Zug, Switzerland) containing 260 μL of ice-cold acetonitrile. The precipitation of microsomal proteins was completed by shaking the plate at 600 rpm at a temperature of 15° C. for 15 min. Finally, the precipitated incubation was stored at 4° C. for 15 min in the fridge. Proteins and filtrates were separated by centrifugation at 1800 g for 20 min at 10° C. The protein pellet was washed to remove unspecific binding with 800 μL of methanol/0.1% sulfuric acid (v/v) by centrifugation at 1500 g, 10° C. and 2 min. The washing step was repeated six times. The washed protein pellet was redissolved by addition of 500 μL of aqueous 0.1% (w/v) NaOH/1% (w/v) SDS. The filter plate was shaken at 400 rpm for 45 min at 60° C. and centrifugated at 2000 g for 20 min at 35° C. This step was repeated once and the protein solutions were combined.
For the determination of total radioactivity, an aliquot of 400 μL protein solution was mixed with 4 mL of liquid scintillation cocktail (Irga Safe plus, Perkin Elmer, Zurich, Switzerland) and analyzed using a Tricarb 2300 TR liquid scintillation analyzer (Perkin Elmer) with luminescence correction and on-line quenching correction by means of an external standard (^133Ba). For the determination of total protein content, an aliquot of 20 μL protein solution was analyzed using the BCA protein assay kit (Perbio Science Switzerland SA, Lausanne, Switzerland). The amount of covalent binding to microsomal proteins was calculated as follows: Dividing the determined amount of bound drug equivalent with NADPH (background subtracted by the amount of bound drug equivalent without NADPH) by the calculated amount of protein of redissolved washed protein pellet in each well gives the amount of bound drug equivalent in pmol/mg protein per hour.

SMILES	EC50 (human ALX receptor) [nM]	also measured
Cc1cccc(-c2oc(C)nc2C(=O)Nc2cnn(Cc3nc(C(C)(F)F)co3)n2)c1 [Example 31, 2-Methyl-5-m-tolyl-oxazole-4-carboxylic acid {2-[4-(1,1-difluoro-ethyl)-oxazol-2-ylmethyl]-2H-[1,2,3]triazol-4-yl}-amide]	2.4	Covalent binding profile compared to compounds of WO 2009/077990 ([1]; in words, versus examples 18 and 75 of WO 2009/077990): superior covalent binding profile; Covalent binding, HLM with NADPH and GSH ([1]; tritiated compound 10 μM, 1.0 mg/mL HLM, 1 h, with NADPH and 5 mM GSH): 28 pmol/mg protein per hour; Covalent binding, HLM with NADPH ([1]; tritiated compound 10 μM, 1.0 mg/mL HLM, 1 h, with NADPH-regenerating system): 22 pmol/mg protein per hour; Covalent binding, HLM without NADPH ([1]; tritiated compound 10 μM, 1.0 mg/mL HLM, 1 h, without NADPH): 3 pmol/mg protein per hour; Covalent binding, HLM with NADPH (background corrected as described above) [amount of bound drug equivalent] ([1]; tritiated compound 10 μM, 1.0 mg/mL HLM, 1 h, value without NADPH subtracted): 19 pmol/mg protein per hour
CC(F)(F)c1ccc(Cn2ncc(NC(=O)c3ncoc3-c3ccc(F)cc3)n2)o1 [Example 16, 5-(4-Fluoro-phenyl)-oxazole-4-carboxylic acid{2-[5-(1,1-difluoro-ethyl)-furan-2-ylmethyl]-2H-[1,2,3]triazol-4-yl}-amide]	46	–
Cc1nc(C(=O)Nc2cnn(Cc3nc(C(C)(F)F)co3)n2)c(-c2ccc(F)c(N(C)C)c2)o1 [Example 36, 5-(3-Dimethylamino-4-fluoro-phenyl)-2-methyl-oxazole-4-carboxylic acid{2-[4-(1,1-difluoro-ethyl)-oxazol-2-ylmethyl]-2H-[1,2,3]triazol-4-yl}-amide]	77	–
CN(C)c1cccc(-c2ocnc2C(=O)Nc2cnn(Cc3nc(C(C)(F)F)cs3)n2)c1 [Example 22, 5-(3-Dimethylamino-phenyl)-oxazole-4-carboxylic acid {2-[4-(1,1-difluoro-ethyl)-thiazol-2-ylmethyl]-2H-[1,2,3]triazol-4-yl}-amide]	52	–
Cc1cccc(-c2ocnc2C(=O)Nc2cnn(Cc3ccc(C(C)(F)F)o3)n2)c1 [Example 23, 5-m-Tolyl-oxazole-4-carboxylic acid {2-[5-(1,1-difluoro-ethyl)-furan-2-ylmethyl]-2H-[1,2,3]triazol-4-yl}-amide]	10	–
Cc1cccc(-c2oc(C)nc2C(=O)Nc2cnn(Cc3nc(C(C)(F)F)cs3)n2)c1 [Example 3, 2-Methyl-5-m-tolyl-oxazole-4-carboxylic acid{2-[4-(1,1-difluoro-ethyl)-thiazol-2-ylmethyl]-2H-[1,2,3]triazol-4-yl}-amide]	7.7	–
CC(F)(F)c1csc(Cn2ncc(NC(=O)c3ncoc3-c3cccc(Cl)c3)n2)n1 [Example 12, 5-(3-Chloro-phenyl)-oxazole-4-carboxylic acid{2-[4-(1,1-difluoro-ethyl)-thiazol-2-ylmethyl]-2H-[1,2,3]triazol-4-yl}-amide]	46	–
Cc1nc(C(=O)Nc2cnn(Cc3ccc(C(C)(F)F)o3)n2)c(-c2cccc(Cl)c2)o1 [Example 15, 5-(3-Chloro-phenyl)-2-methyl-oxazole-4-carboxylic acid{2-[5-(1,1-difluoro-ethyl)-furan-2-ylmethyl]-2H-[1,2,3]triazol-4-yl}-amide]	23	–
CC(F)(F)c1csc(Cn2ncc(NC(=O)c3nc(C4CC4)oc3-c3ccccc3)n2)n1 [Example 9, 2-Cyclopropyl-5-phenyl-oxazole-4-carboxylic acid{2-[4-(1,1-difluoro-ethyl)-thiazol-2-ylmethyl]-2H-[1,2,3]triazol-4-yl}-amide]	291	–
CN(C)c1cc(-c2ocnc2C(=O)Nc2cnn(Cc3nc(C(C)(F)F)co3)n2)ccc1F [Example 35, 5-(3-Dimethylamino-4-fluoro-phenyl)-oxazole-4-carboxylic acid {2-[4-(1,1-difluoro-ethyl)-oxazol-2-ylmethyl]-2H-[1,2,3]triazol-4-yl}-amide]	4	–
